From patent US10258580B2, “Cannabinoids for use in the treatment of neurodegenerative diseases or disorders” (priority 2011, dated 2019)

What was measured:
[1] = test system: Aβ-stimulated C6 cells; assay: Nitrite (NO) production in Aβ-stimulated C6 cells, Griess reaction; assay type: cell-based; conditions: Aβ (1-42) 1 μg/mL, 24 hours; cannabinoid 10^−9 to 10^−6 M
Procedure: (§1) The cannabinoids tested were CBG, CBC, and CBDV. The cannabinoids were isolated from cannabis plant material and purified. The cannabinoids were tested at a concentration of 10^−9 to 10^−6 M. The cannabinoids were dissolved in DMSO at the concentration of 10^−2M and then diluted in DMEM to their final concentration.
(§2) Glial cells (C6) were cultured in 10% FBS supplemented DMEM. PC12 neuronal cell were cultured in 10% FBS plus 5% HS supplemented DMEM and SHY-5SY neuronal cells were cultured in 10% FBS supplemented RPMI. Neuronal cells were differentiated with retinoic acid. After 24 hours of starvation glial cells, differentiated PC12 and SHY-5SY neuronal cells were treated with the cannabinoids, CBC, CBG and CBDV, in the presence or absence of 1 μg/mL of Aβ (1-42) for the following 24 hours.
Production of NO was assayed by measuring the amount of nitrite in the culture medium of C6 cells 24 hours after Aβ(1-42) (1 μg/mL) stimulation using a spectrophotometric assay based on Griess reaction.

[2] = test system: Aβ-stimulated C6 cells; assay: Aβ-stimulated C6 cell viability/proliferation, MTT assay; assay type: cell-based; conditions: Aβ (1-42) 1 μg/mL, 24 hours
Procedure: as §1, §2
(§3) Cell viability was determined using 3(4,5-dimethylthiazol-2yl)2,5-diphenyl-2H-tetrazolium bromide (MTT) assay which is an assay based on the ability of viable cells to convert MTT in formazan salt.
(§4) The cells were plated in 96-well culture plates at the density of 5×10^3 cells/well and allowed to adhere at 37° C. for 2 hours. Thereafter, the medium was replaced with fresh medium and the cells were treated as above described. After 24 hours 25 μl MTT (5 mg/ml in DMEM) was added to the cells and incubated for additional 3 hours at 37° C. After this time, the cells were lysed and the dark blue crystals solubilized with 125 μl of a solution containing 50% (v/v) N,N, dimethylformamide, 20% (w/v) sodium dodecylsulphate, with an adjusted pH of 4.5. The optical density of each well was measured with a microplate spectrophotometer (Titertek Multiscan MCC/340) equipped with a 620 nm filter.

[3] = test system: SH-SY5Y cells; assay: Aβ-induced SH-SY5Y cell viability, MTT assay (Example 1); assay type: cell-based, human; conditions: Aβ (1-42) 1 μg/mL
Procedure: as §1, §2, §3, §4

[4] = test system: neuronal cultures exposed to glutamate; conditions: in vitro, pure/synthetic preparations; cited from earlier work
[5] = test system: SH-SY5Y cells; assay: Aβ-induced SH-SY5Y cell viability, MTT/formazan test (Example 2); assay type: cell-based, human; conditions: Aβ (1-42) 1 μg/mL, 24 hours; 10^−7 M
Procedure: (§5) Glial cells (C6) were cultured in 10% FBS supplemented DMEM, and SHY-5SY were cultured in 10% FBS supplemented RPMI. Neuronal cells were differentiated with retinoic acid. After 24 hours of starvation glial cells and SHY-5SY were treated with CBDV (10^−7M), CBD (10^−7 M), CBDVA (10^−7 M), CBDA (10^−7 M) and THCVA (10^−7 M) in presence or absence of Aβ (1-42) (1 μg/mL) for following 24 hours.
as §4, with “Cell activation/viability was determined using 3(4,5-dimethylthiazol-2yl)2,5-diphenyl-2H-tetrazolium bromide (MTT) assay, an assay based on the ability of viable cells to convert MTT in formazan salt. Briefly, the cells” for “The cells”

[6] = test system: SH-SY5Y cells; assay: Aβ-induced SH-SY5Y viable cell number, cell counting by TC10 System; assay type: cell-based, human; conditions: Aβ (1-42) 1 μg/mL, 24 hours; 10^−7 M
Procedure: as §5
In another set of experiments cell counting was performed by TC10 System (BIO-RAD), according to manufacturing instruction.

[7] = in vivo, pure CBD; cited from earlier work
[8] = test system: iNOS; assay: iNOS mRNA level in Aβ-stimulated C6 cells, semi-quantitative RT-PCR; assay type: cell-based; conditions: Aβ (1-42) 1 μg/mL, 24 hours; 10^−7 M
Procedure: as §2
The mRNA level of iNOS in C6 cells was determined using the semi-quantitative RT-PCR method. The PCR-primers were selected according to appropriate DNA sequences. 15 μl aliquots of PCR products were electrophoretically fractionated through 1% agarose gel containing the fluorescent Vistra green dye. Labelling intensity of the PCR product, which is linear to the amount of DNA, was quantified using the Molecular Imager FX and Quantity One software (Biorad, Milan, Italy).

[9] = test system: TNF-alpha; assay: TNF-alpha protein expression in Aβ-stimulated C6 cells, western blot; assay type: cell-based; conditions: Aβ (1-42) 1 μg/mL, 24 hours, 10^−7 M
Procedure: as §5
(§6) Western blot analysis was performed on C6 and SHY-5SY cell lysate. Briefly cells were rapidly homogenized in 60 μl of ice-cold hypotonic lysis buffer [10 mM HEPES, 1.5 mM MgCl2, 10 mM KCl, 0.5 mM phenylmethylsulfonyl fluoride, 1.5 μg/mL soybean trypsin inhibitor, pepstatin A 7 μg/mL, leupeptin 5 μg/mL, 0.1 mM benzamidine, 0.5 mM dithiothreitol (DTT)]. After this time, the cytoplasmic fractions were then obtained by centrifugation at 13000 g for 10 min and protein concentration in the samples was determined with Bio-Rad assay kit according to the manufacturer's instructions. Immunoblotting analysis of iNOS, COX-2, TNF-a, Bcl2 and actin were performed on a cytosolic fraction. Protein concentration was determined and equivalent amounts (50 μg) of each sample were separated under reducing conditions in 12% SDS-polyacrylamide minigel. […] The protein bands were scanned and densitometrically analyzed with a GS-800 imaging densitometer (Bio-Rad Laboratories, Calif., USA).

[10] = test system: COX2; assay: COX2 protein expression in Aβ-stimulated C6 cells, western blot; assay type: cell-based; conditions: Aβ (1-42) 1 μg/mL, 24 hours, 10^−7 M
Procedure: as §5, §6

[11] = test system: iNOS; assay: iNOS protein expression in Aβ-stimulated C6 cells, western blot; assay type: cell-based; conditions: Aβ (1-42) 1 μg/mL, 24 hours, 10^−7 M
Procedure: as §5, §6

[12] = test system: TNF-alpha; assay: TNF-alpha release in supernatant of Aβ-treated C6 cells, ELISA; assay type: cell-based; conditions: Aβ (1-42) 1 μg/mL, 24 hours, 10^−7 M
Procedure: as §5
ELISA essay was performed on supernatants of cultured cells. Nunc Maxisorp 96-well microtiter plates (Gibco, Paisley, UK) were coated overnight at 4° C. with 1 μg/well of specific monoclonal antibody anti-TNF, diluted in 0.5 M Na2CO3. The wells were washed three times and then blocked with phosphate-buffered saline (PBS) containing 0.05% (v/v) Tween 20 and 0.3% Fetal Bovine Serum (ELISA buffer) for 30 min at room temperature. The standards and samples were added in a 100-μl volume and incubated at 37° C. for 1.5 h. The standard curve was generated using 0.1 ng to 1 μg/well of purified protein, diluted in ELISA buffer. Following four washes in ELISA buffer, monoclonal antibodies were diluted and added to the wells for 1 h. […] The colour reaction was stopped by addition of HCl and optical densities at 490 nm were measured using a microplate reader.

[13] = test system: Bcl2; assay: Bcl2 protein expression in Aβ-treated SH-SY5Y cells, western blot; assay type: cell-based, human; conditions: Aβ (1-42) 1 μg/mL, 24 hours, 10^−7 M
Procedure: as §5, §6

For `CCCCCc1cc(O)c(C/C=C(\C)CCC=C(C)C)c(O)c1` [CBG, cannabigerol, reference compound], the “nitrite production in Aβ-stimulated C6 cells” value (“nitrite production” for short) [1] was “had no effect”, the “Aβ-stimulated C6 cell viability (cell proliferation, MTT)” value (shortened to “Aβ-stimulated C6 cell viability”) ([2]; 10^−9 to 10^−6 M) was “had no effect” and the “Aβ-induced SH-SY5Y cell death (cell viability, MTT)” value (“Aβ-induced SH-SY5Y cell death” for short) ([3]; 10^−9 to 10^−6 M) was “had no effect”.

For `CCCCCc1cc(O)c2c(c1)OC(C)(C)[C@@H]1CCC(C)=C[C@@H]21` [THC, tetrahydrocannabinol], the “prevention of glutamate toxicity” value [4] is given as “could be prevented to some extent”.

For `CCCCCc1cc(O)c2c(c1)OC(C)(CCC=C(C)C)C=C2` (stereo not shown) [CBC, cannabichromene], the “nitrite production” value [1] was “significantly reduced”, the “Aβ-stimulated C6 cell viability” value ([2]; 10^−7 to 10^−6 M) was “significantly inhibited cell proliferation” and the “Aβ-induced SH-SY5Y cell death” value ([3]; 10^−6 M (highest concentration used)) was “effective only at the highest concentration used”.

In the case of `C=C(C)[C@@H]1CCC(C)=C[C@H]1c1c(O)cc(CCCCC)c(C(=O)O)c1O` [CBDA], the “Aβ SH-SY5Y cell death (viability, MTT/formazan test)” value [5] is reported as “had no effect” and the “Aβ induced SH-SY5Y cell death (viable cell number, cell counting)” value (from here on “Aβ induced SH-SY5Y cell death”) [6] is reported as “No significant effect”.

With `C=C(C)[C@@H]1CCC(C)=C[C@H]1c1c(O)cc(CCC)c(C(=O)O)c1O` [CBDVA, cannabidivarin acid] the “Aβ SH-SY5Y cell death (viability, MTT/formazan test)” value [5] was “able to prevent” and the “Aβ induced SH-SY5Y cell death” value [6] was “able to prevent”.

For `C=C(C)[C@@H]1CCC(C)=C[C@H]1c1c(O)cc(CCCCC)cc1O` [CBD, cannabidiol], the “Aβ SH-SY5Y cell death (viability, MTT/formazan test)” value [5] is given as “able to prevent”, the “Aβ induced SH-SY5Y cell death” value [6] is given as “able to prevent” and the “prevention of glutamate toxicity” value [4] is given as “could be prevented to some extent”. For the same compound, the “difference between treated and placebo treated animals” value [7] was “failed to find a difference”.

For `C=C(C)[C@@H]1CCC(C)=C[C@H]1c1c(O)cc(CCC)cc1O` [CBDV, cannabidivarin], the “nitrite production” value [1] was “significantly reduced”, the “Aβ-stimulated C6 cell viability” value ([2]; 10^−8 to 10^−6 M) was “significantly inhibited cell proliferation” and the “iNOS mRNA transcription in Aβ-stimulated C6 cells” value [8] was “significant reduction of mRNA transcription”. For the same compound, the “Aβ-induced SH-SY5Y cell death” value ([3]; 10^−9 to 10^−6 M) was “able to prevent”, the TNF-alpha protein expression [9] was “significant reduction” and the COX2 protein expression [10] was “significant reduction”. The iNOS protein expression [11] was “significant reduction”, the “TNF-alpha release in the supernatant of cells” value [12] was “significantly reduced” and the Bcl2 protein expression [13] was “significantly restored”. For the same compound, the “Aβ SH-SY5Y cell death (viability, MTT/formazan test)” value [5] was “able to prevent” and the “Aβ induced SH-SY5Y cell death” value [6] was “able to prevent”.

In the case of `CCCc1cc2c(c(O)c1C(=O)O)[C@@H]1C=C(C)CC[C@H]1C(C)(C)O2` [THCVA], the “Aβ SH-SY5Y cell death (viability, MTT/formazan test)” value [5] is reported as “had no effect” and the “Aβ induced SH-SY5Y cell death” value [6] is reported as “No significant effect”.
